Test results reported in patent US7868026B2, “Therapeutic compounds” (Pfizer Inc., priority 2005, dated 2011).
pIC50, pKi: −log10 of the molar value. Read-outs that look alike come from different tables or passages of the source.

Columns and labels:
Assay type in all cases: biochemical
CYP3A4 [1] = molecular target: T1, CYP3A4 (Homo sapiens, UniProt P08684); assay: Determination of IC50 against CYP3A4 by measurement of inhibition of midazolam metabolism (human liver microsomes, 1-hydroxymidazolam by LC-MS/MS); design: 0.1 mg/mL human liver microsomes; conditions: 2 μM midazolam, 0.1 mg/mL human liver microsomes
T1 sequence (P08684 whole entry): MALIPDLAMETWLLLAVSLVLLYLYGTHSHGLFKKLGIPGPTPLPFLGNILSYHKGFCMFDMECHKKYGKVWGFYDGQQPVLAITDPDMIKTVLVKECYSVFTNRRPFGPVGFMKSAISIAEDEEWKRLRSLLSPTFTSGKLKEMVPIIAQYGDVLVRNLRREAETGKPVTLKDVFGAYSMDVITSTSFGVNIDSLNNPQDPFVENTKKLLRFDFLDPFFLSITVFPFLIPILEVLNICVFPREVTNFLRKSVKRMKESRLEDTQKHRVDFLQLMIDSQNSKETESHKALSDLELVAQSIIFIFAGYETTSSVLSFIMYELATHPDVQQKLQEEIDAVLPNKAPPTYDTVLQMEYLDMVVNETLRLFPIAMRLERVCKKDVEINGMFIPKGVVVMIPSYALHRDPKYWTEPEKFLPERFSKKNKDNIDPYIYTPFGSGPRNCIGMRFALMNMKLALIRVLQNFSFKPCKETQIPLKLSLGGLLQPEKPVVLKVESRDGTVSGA
Method in brief: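 Human liver microsomes (0.1 mg/mL) incubated 8 min with 2 μM midazolam and 1 mM NADPH in 100 mM potassium phosphate, pH 7.4. 1-Hydroxymidazolam quantified by LC-MS/MS (MRM) as peak area ratio to internal standard against a metabolite standard curve.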

CYP3A4 [2] = molecular target: T1, CYP3A4; assay: Determination of IC50 against CYP3A4 by measurement of inhibition of testosterone metabolism (human liver microsomes, 6-β-OH-testosterone by LC-MS/MS); design: 0.1 mg/mL human liver microsomes; conditions: read-out: IC50 (Testo.)
Method in brief: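 6-β-OH-testosterone formation was read by LC-MS/MS (MRM, internal standard, standard curve) after eight minutes. Reaction contained testosterone 25 μM, NADPH 1 mM and microsomal protein 0.1 mg/mL in pH 7.4 potassium phosphate (100 mM).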

CYP3A4 [3] = molecular target: T1, CYP3A4; assay: Determination of compound Kiapp against recombinant CYP3A4 enzyme (BFC fluorescent substrate)
Method in brief: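 Kiapp derived from initial velocities over the first 5 min of BFC (5 uM) oxidation, using Morrison's tight-binding equation for non-partial and Szedlacsek's for partial inhibitors. Inhibitor first pre-incubated ≥30 min with CYP3A4 (5.5 or 8 nM, ±b5) in pH 7.0 phosphate/TCEP/2% DMF at room temperature; 200 uM NADPH initiated.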

[4] = Baculo. enzyme preparation, read-out: Kiapp (BFC, Baculo.)
[5] = Super. enzyme preparation, read-out: Kiapp (BFC, Super.)

| SMILES | pIC50 (CYP3A4 [1]) | pIC50 (CYP3A4 [2]) | pKi (CYP3A4 [3]; [4]) | pKi (CYP3A4 [3]; [5]) |
| --- | --- | --- | --- | --- |
| CCCN(CC1CC1)C(=O)c1ccccc1S(=O)(=O)N(C)c1cccnc1 [Example 337, N-(cyclopropylmethyl)-2-{[methyl(pyridin-3-yl)amino]sulfonyl}-N-propylbenzamide] | 7.06 | 7.19 | 6.55 | 7.21 |
| CCCCCNC(=O)c1ccccc1S(=O)(=O)N(C)c1cccnc1 [Example 340, 2-{[methyl(pyridin-3-yl)amino]sulfonyl}-N-pentylbenzamide] | 7.39 | 7.36 | 6.47 | 7.04 |
| Cc1cncc(NS(=O)(=O)c2ccccc2C(=O)N2CCCC(C)(C)C2)c1 [Example 343, 2-[(3,3-dimethylpiperidin-1-yl)carbonyl]-N-(5-methylpyridin-3-yl)benzenesulfonamide] | 7.43 | 7.10 | 6.69 | 7.22 |
| CN(c1cccnc1)S(=O)(=O)c1ccccc1C(=O)N1CCCC(C)(C)C1 [Example 345, 2-[(3,3-dimethylpiperidin-1-yl)carbonyl]-N-methyl-N-pyridin-3-ylbenzenesulfonamide] | 7.12 | 7.32 | 6.39 | 6.87 |
| CCCCNC(=O)c1ccccc1S(=O)(=O)N(C)c1cccnc1 [Example 351, N-butyl-2-{[methyl(pyridin-3-yl)amino]sulfonyl}benzamide] | 6.95 | 6.96 | 6.34 | 6.86 |
| Cc1cncc(NS(=O)(=O)c2ccccc2C(=O)NC(C)(C)C)c1 [Example 354, N-(tert-butyl)-2-{[(5-methyl-pyridin-3-yl)amino]sulfonyl} benzamide] | 7.51 | 7.21 | 6.52 | 7.60 |
| CC1CCN(C(=O)c2ccccc2S(=O)(=O)N(C)c2cccnc2)CC1 [Example 356, N-methyl-2-[(4-methylpiperidin-1-yl)carbonyl]-N-pyridin-3-ylbenzenesulfonamide] | 7.08 | 6.94 | 6.32 | 6.83 |
| CN(c1cccnc1)S(=O)(=O)c1ccccc1C(=O)NCc1cccc(F)c1 [Example 357, N-(3-fluorobenzyl)-2-{[methyl(pyridin-3-yl)amino]sulfonyl}benzamide] | 7.49 | 7.37 | 6.91 | 7.52 |
| CC1CC(C)CN(C(=O)c2ccccc2S(=O)(=O)N(C)c2cccnc2)C1 (stereo not shown) [Example 358, 2-[(3,5-dimethylpiperidin-1-yl)carbonyl]-N-methyl-N-pyridin-3-ylbenzenesulfonamide] | 7.17 | 7.00 | 6.23 | 6.86 |
| CN(c1cccnc1)S(=O)(=O)c1ccccc1C(=O)NCC(C)(C)C [Example 359, N-(2,2-dimethylpropyl)-2-{[methyl(pyridin-3-yl)amino]sulfonyl}benzamide] | 7.00 | 6.59 | 6.23 | 6.85 |
| Cc1cncc(NS(=O)(=O)c2ccccc2C(=O)N2CCC(C)CC2)c1 [Example 363, 2-[(4-methylpiperidin-1-yl)carbonyl]-N-(5-methylpyridin-3-yl)benzenesulfonamide] | 7.43 | 7.12 | 6.77 | 7.44 |
| CCCCCNC(=O)c1ccccc1S(=O)(=O)N(C)c1cncc(OC)c1 [Example 364, 2-{[(5-methoxypyridin-3-yl)(methyl)amino]sulfonyl}-N-pentylbenzamide] | 7.48 | 7.31 | 7.06 | 7.63 |
| COc1cncc(NS(=O)(=O)c2ccccc2C(=O)N2CCC(O)CC2)c1 [Example 365, 2-[(4-hydroxypiperidin-1-yl)carbonyl]-N-(5-methoxypyridin-3-yl)benzenesulfonamide] | < 6.12 | < 6.12 | < 6.00 | 6.29 |
| COc1cncc(NS(=O)(=O)c2ccccc2C(=O)N2CCC(OC)CC2)c1 [Example 366, 2-[(4-methoxypiperidin-1-yl)carbonyl]-N-(5-methoxypyridin-3-yl)benzenesulfonamide] | 6.60 | < 6.12 | 6.26 | 7.19 |
| COc1cncc(NS(=O)(=O)c2ccccc2C(=O)N2CCOCC2)c1 [Example 367, N-(5-methoxypyridin-3-yl)-2-(morpholin-4-ylcarbonyl)benzenesulfonamide] | 6.50 | < 6.12 | 6.24 | 6.83 |

The remaining lines, values ahead:

| pIC50 (CYP3A4 [1]) | pIC50 (CYP3A4 [2]) | pKi (CYP3A4 [3]; [4]) | pKi (CYP3A4 [3]; [5]) | SMILES |
| --- | --- | --- | --- | --- |
| 7.64 | 7.52 | 7.62 | 8.17 | COc1cncc(NS(=O)(=O)c2ccccc2C(=O)N(C)CCC(C)C)c1 [Example 338, 2-{[(5-methoxypyridin-3-yl)amino]sulfonyl}-N-methyl-N-(3-methylbutyl)benzamide] |
| 7.85 | 7.59 | 7.45 | 8.21 | CCCCCN(C)C(=O)c1ccccc1S(=O)(=O)Nc1cncc(OC)c1 [Example 339, 2-{[(5-methoxypyridin-3-yl)amino]sulfonyl}-N-methyl-N-pentylbenzamide] |
| 7.66 | 7.59 | 7.44 | 7.88 | CCCCCN(C)C(=O)c1ccccc1S(=O)(=O)Nc1cncc(C)c1 [Example 341, N-methyl-2-{[(5-methylpyridin-3-yl)amino]sulfonyl}-N-pentylbenzamide] |
| 7.96 | 7.82 | 7.20 | 7.88 | Cc1cncc(NS(=O)(=O)c2ccccc2C(=O)NCc2cccc(F)c2)c1 [Example 342, N-(3-fluorobenzyl)-2-{[(5-methylpyridin-3-yl)amino]sulfonyl}benzamide] |
| 8.15 | 8.05 | 7.26 | 7.67 | Cc1cncc(NS(=O)(=O)c2ccccc2C(=O)N(C)CCc2ccccc2)c1 [Example 344, N-methyl-2-{[(5-methylpyridin-3-yl)amino]sulfonyl}-N-(2-phenylethyl)benzamide] |
| 7.72 | 7.96 | 7.28 | 7.88 | COc1cncc(NS(=O)(=O)c2ccccc2C(=O)N(C)Cc2cccc(F)c2)c1 [Example 346, N-(3-fluorobenzyl)-2-{[(5-methoxypyridin-3-yl)amino]sulfonyl}-N-methylbenzamide] |
| 7.89 | 7.59 | 7.46 | 8.27 | Cc1cncc(NS(=O)(=O)c2ccccc2C(=O)N(C)CC2CCCC2)c1 [Example 347, N-(cyclopentylmethyl)-N-methyl-2-{[(5-methylpyridin-3-yl)amino]sulfonyl}benzamide] |
| 8.15 | 7.92 | 7.51 | 8.33 | Cc1cncc(NS(=O)(=O)c2ccccc2C(=O)N(C)CCC(C)C)c1 [Example 348, N-methyl-N-(3-methylbutyl)-2-{[(5-methylpyridin-3-yl)amino]sulfonyl}benzamide] |
| 7.96 | 7.60 | 7.25 | 8.13 | Cc1cncc(NS(=O)(=O)c2ccccc2C(=O)N(C)Cc2cccc(F)c2)c1 [Example 349, N-(3-fluorobenzyl)-N-methyl-2-{[(5-methylpyridin-3-yl)amino]sulfonyl}benzamide] |
| 7.70 | 7.41 | 6.86 | 7.67 | CN(Cc1cccc(F)c1)C(=O)c1ccccc1S(=O)(=O)Nc1cccnc1 [Example 350, N-(3-fluorobenzyl)-N-methyl-2-[(pyridin-3-ylamino)sulfonyl]benzamide] |
| 7.80 | 7.51 | 7.15 | 7.65 | CCCCN(C)C(=O)c1ccccc1S(=O)(=O)Nc1cncc(C)c1 [Example 352, N-butyl-N-methyl-2-{[(5-methylpyridin-3-yl)amino]sulfonyl}benzamide] |
| 7.74 | 7.51 | 7.55 | 7.94 | CCCCN(C)C(=O)c1ccccc1S(=O)(=O)Nc1cncc(OC)c1 [Example 353, N-butyl-2-{[(5-methoxypyridin-3-yl)amino]sulfonyl}-N-methylbenzamide] |
| 7.20 | 7.19 | 6.74 | 7.35 | CN(Cc1ccccc1)C(=O)c1ccccc1S(=O)(=O)N(C)c1cccnc1 [Example 355, N-benzyl-N-methyl-2-{[methyl(pyridin-3-yl)amino]sulfonyl}benzamide] |
| 7.60 | 7.37 | 7.09 | 7.66 | CCCCCNC(=O)c1ccccc1S(=O)(=O)Nc1cncc(C)c1 [Example 360, 2-{[(5-methylpyridin-3-yl)amino]sulfonyl}-N-pentylbenzamide] |
| 7.80 | 7.40 | 6.56 | 7.38 | COc1ccc(CNC(=O)c2ccccc2S(=O)(=O)Nc2cncc(C)c2)cc1 [Example 361, N-(4-methoxybenzyl)-2-{[(5-methylpyridin-3-yl)amino]sulfonyl}benzamide] |
| 7.59 | 7.36 | 7.03 | 7.64 | Cc1cncc(NS(=O)(=O)c2ccccc2C(=O)NCCC(C)C)c1 [Example 362, N-(3-methylbutyl)-2-{[(5-methylpyridin-3-yl)amino]sulfonyl}benzamide] |
